Data on 19 compounds can be found in patent US20240270762A1, “PENICILLIN-BINDING PROTEIN INHIBITORS” (priority 2021, published 2024).

In brackets after ≈: the same amount, converted by molar mass. Bounds are passed on as bounds.

Experiment [1] has as its target T1, PBP3 from Escherichia coli (K-12) (Escherichia coli, UniProt P0AD68).
T1 construct: made in house
The experiment can be described thus: Bocillin-FL fluorescence polarization competition binding, E. coli PBP3. The text has this: To determine the ability of boronic acid-based test PBP inhibitors to bind Penicillin Binding Proteins (PBPs), Bocillin-FL (fluorescently-labeled penicillin V; ThermoFisher Scientific) was used in a fluorescence polarization (FP) competition binding assay to assess inhibitor binding to PBP3 from Escherichia coli (K-12), PBP3 from Pseudomonas aeruginosa (PAO1), PBP1a and PBP3 from Acinetobacter baumannii (ATCC 19606), and PBP2 from Neisseria gonorrhoeae (FA19). PBPs were cloned and purified as described previously (E. coli PBP3, King, D. T, et al., ACS Infectious Diseases 2015, 1, 175-184; P. aeruginosa PBP3, Han et. al., PNAS 2010, 107 (51), 22002-22007; A. baumannii PBPs, Penwell et. al., Antimicrob. Agents Chemother. 2015, 59 (3), 1680-1689; N. gonorrhoeae PBP2, Singh et. al., J. Biol. Chem. 2019, 294 (38), 14020-14032). To establish assay conditions for competition binding, enzyme titration/saturation binding experiments were initially performed. Bocillin-FL was prepared at 0.2 μM in a buffer comprised of 50 mM Hepes (pH 8.0), 300 mM NaCl and 10% (v/v) glycerol for reactions with E. coli, P. aeruginosa and N. gonorrhoeae PBPs, and 25 mM Tris (pH 8.0), 200 mM NaCl, 10% (v/v) glycerol and 0.005% (v/v) Tween 20 for reactions with A. baumannii PBPs. Saturation binding was performed by mixing 40 μl of PBP solutions ranging in concentrations from 0-24 μM with 40 μl of the 0.2 μM Bocillin-FL solution, in individual wells of a black 384-well microplate. FP was measured immediately upon mixing (Excitation, 490 nm; Emission, 520 nm; g-factor, 0.96), using a Cytation3 (BioTek) microplate reader and measured continuously for up to 120 minutes. The FP response stabilized after 15 minutes for P. aeruginosa and A. baumannii PBP3, 30 minutes for E. coli PBP3 and A. baumannii PBP1a, and less than 1 minute for N. gonorrhoeae PBP2. […] The competition binding assay (80 μl final volume) was validated using beta-lactams and PBPs at final concentrations of: 1.5 μM for E. coli PBP3; 0.75 μM for P. aeruginosa PBP3; 1 μM for A. baumannii PBP1a; 0.2 μM for A. baumannii PBP3; and 0.25 μM for N. gonorrhoeae PBP2. Bocillin-FL was at 0.1 μM (0.05 μM with A. baumannii PBP1a) and beta-lactam concentrations ranged from 0-1,000 μM. E. coli PBP3 was incubated with increasing concentrations of ampicillin in a black 384-well microplate (Corning) for 30 minutes. P. aeruginosa PBP3 was incubated for 15 minutes with aztreonam, whereas A. baumannii PBP1a and PBP3 were incubated for 15 minutes with meropenem, and then Bocillin-FL was added followed immediately by the FP measurement for up to 60 minutes. […] The beta-lactam potency was reported as the concentration of beta-lactam required to reduce the amount of PBP bound-Bocillin-FL by 50% (EC50). […] The EC50 of aztreonam was determined to be <0.5 μM for P. aeruginosa PBP3. […] Binding assays for boronic acid PBP inhibitors were performed in an identical fashion for the respective PBPs.

The test system of experiment [2] is E. coli AG100. As to the kind of experiment: microbe, parasite or virus in culture. Format: cell-based. The settings on record: Escherichia coli, AG100, read-out: MIC E. coli AG100.
In experiment [3] the test system is N. gonorrhoeae WHO X. As to the kind of experiment: Liquid broth MIC in Fastidious broth. Conditions: Neisseria gonorrhoeae, read-out: Minimum Inhibitory Concentration (MIC), N. gonorrhoeae WHO X.
In experiment [4] the test system is N. gonorrhoeae WHO Z. As to the kind of experiment: Liquid broth MIC in Fastidious broth. The settings on record: Neisseria gonorrhoeae, read-out: Minimum Inhibitory Concentration (MIC), N. gonorrhoeae WHO Z.

T1 sequence (P0AD68 1-577): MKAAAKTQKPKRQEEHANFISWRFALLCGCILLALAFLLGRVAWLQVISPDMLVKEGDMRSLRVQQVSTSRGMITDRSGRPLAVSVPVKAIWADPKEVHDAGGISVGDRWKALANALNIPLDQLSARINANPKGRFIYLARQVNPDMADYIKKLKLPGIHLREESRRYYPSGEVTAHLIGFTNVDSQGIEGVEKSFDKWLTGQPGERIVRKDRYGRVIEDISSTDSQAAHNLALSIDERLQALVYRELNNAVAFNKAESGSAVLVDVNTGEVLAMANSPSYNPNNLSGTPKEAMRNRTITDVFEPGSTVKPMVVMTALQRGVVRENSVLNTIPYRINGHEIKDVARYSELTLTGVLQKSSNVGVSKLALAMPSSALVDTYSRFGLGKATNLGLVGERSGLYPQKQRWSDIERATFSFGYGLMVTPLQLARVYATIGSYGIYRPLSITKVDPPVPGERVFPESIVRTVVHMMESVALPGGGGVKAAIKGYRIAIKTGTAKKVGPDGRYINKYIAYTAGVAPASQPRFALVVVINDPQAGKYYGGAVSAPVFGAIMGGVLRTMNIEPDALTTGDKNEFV

For the compound `CS(=O)(=O)N1CCN(C(=O)N[C@@H](C(=O)N[C@H]2Cc3cccc(C(=O)O)c3OB2O)c2ccc(P(=O)(O)O)c(F)c2)C1=O` (single isomer, unassigned) [Example 15], in experiment [1], the EC50 was < 10 µM. For the same compound, the figures for the MIC in experiment [2], in experiment [3] and in experiment [4] were 32 to 64 µg/mL (≈ 50.9 to 102 µM), < 1 µg/mL and < 1 µg/mL, respectively.

For `CS(=O)(=O)N1CCN(C(=O)N[C@@H](C(=O)N[C@H]2Cc3cccc(C(=O)O)c3OB2O)c2cc(F)c(P(=O)(O)O)c(F)c2)C1=O` (single isomer, unassigned) [Example 18], in experiment [1], the EC50 was < 10 µM. For the same compound, the MIC in experiment [2] was 32 to 64 µg/mL (≈ 49.5 to 99 µM); in experiment [3], < 1 µg/mL; in experiment [4], < 1 µg/mL.

In the case of `CS(=O)(=O)N1CCN(C(=O)N[C@@H](C(=O)N[C@H]2Cc3ccc(F)c(C(=O)O)c3OB2O)c2ccc(P(=O)(O)O)c(F)c2)C1=O` (single isomer, unassigned) [Example 19], the EC50 in experiment [1] is < 10 µM. For the same compound, the results for the MIC in experiment [2], in experiment [3] and in experiment [4] were > 128 µg/mL, < 1 µg/mL and < 1 µg/mL, respectively.

As to `CCN1CCN(C(=O)N[C@@H](C(=O)N[C@H]2Cc3cccc(C(=O)O)c3OB2O)c2ccc(P(C)(=O)O)cc2)C(=O)C1=O` (single isomer, unassigned) [Example 47], the EC50 in experiment [1] is < 10 µM. The MIC was in the range of 8 to 16 µg/mL (≈ 13.6 to 27.3 µM) in experiment [2], 4 to 8 µg/mL (≈ 6.82 to 13.6 µM) in experiment [3] and 1 to 2 µg/mL (≈ 1.71 to 3.41 µM) in experiment [4].

Turning to `N[C@@H](C(=O)N[C@H]1Cc2cccc(C(=O)O)c2OB1O)c1ccc(P(=O)(O)O)cc1` (single isomer, unassigned) [Example 171], in experiment [1], the half-maximal effective concentration (EC50) is > 250 µM. The results for the MIC in experiment [2], in experiment [3] and in experiment [4] were > 128 µg/mL, > 64 µg/mL and > 64 µg/mL, respectively.

Consider `O=C(O)c1cccc2c1OB(O)[C@@H](NC(=O)[C@@H](NC(=O)c1ccn[nH]c1=O)c1ccc(P(=O)(O)O)cc1)C2` (single isomer, unassigned) [Example 177], for which, in experiment [1], the EC50 lay within 10 to 50 µM. The MIC in experiment [2] is > 128 µg/mL; in experiment [3] it was 16 to 32 µg/mL (≈ 29.5 to 59 µM); in experiment [4] it was 4 to 8 µg/mL (≈ 7.38 to 14.8 µM).

Turning to `O=C(O)c1cccc2c1OB(O)[C@@H](NC(=O)[C@H](NC(=O)c1ccn[nH]c1=O)c1ccc(P(=O)(O)O)cc1)C2` (single isomer, unassigned) [Example 178], the EC50 in experiment [1] is < 10 µM. The MIC in experiment [2] is > 128 µg/mL; in experiment [3] it was 4 to 8 µg/mL (≈ 7.38 to 14.8 µM); in experiment [4], < 1 µg/mL.

In the case of `Cn1cccc(C(=O)N[C@H](C(=O)N[C@H]2Cc3cccc(C(=O)O)c3OB2O)c2ccc(P(=O)(O)O)cc2)c1=O` (single isomer, unassigned) [Example 181], the EC50 in experiment [1] lay in the range of 50 to 250 µM. For the same compound, the MIC in experiment [2] was > 128 µg/mL; in experiment [3] it was 16 to 32 µg/mL (≈ 28.8 to 57.6 µM); in experiment [4], 16 to 32 µg/mL (≈ 28.8 to 57.6 µM).

For `Cn1cccc(C(=O)N[C@@H](C(=O)N[C@H]2Cc3cccc(C(=O)O)c3OB2O)c2ccc(P(=O)(O)O)cc2)c1=O` (single isomer, unassigned) [Example 182], in experiment [1], the EC50 was < 10 µM. Moreover, the MIC is > 128 µg/mL in experiment [2], 16 to 32 µg/mL (≈ 28.8 to 57.6 µM) in experiment [3] and 1 to 2 µg/mL (≈ 1.8 to 3.6 µM) in experiment [4].

In experiment [1], `O=C(O)c1cccc2c1OB(O)[C@@H](NC(=O)[C@@H](NC(=O)c1cccn(C(F)F)c1=O)c1ccc(P(=O)(O)O)cc1)C2` (single isomer, unassigned) [Example 190] had an EC50 of 10 to 50 µM. Moreover, the values for the MIC in experiment [2], in experiment [3] and in experiment [4] were > 128 µg/mL, 16 to 32 µg/mL (≈ 27.1 to 54.1 µM) and 4 to 8 µg/mL (≈ 6.77 to 13.5 µM), respectively.

Regarding `O=C(O)c1cccc2c1OB(O)[C@@H](NC(=O)[C@H](NC(=O)c1cccn(C(F)F)c1=O)c1ccc(P(=O)(O)O)cc1)C2` (single isomer, unassigned) [Example 191], the concentration giving a half-maximal response (EC50) in experiment [1] is < 10 µM. Besides, the figures for the MIC in experiment [2], in experiment [3] and in experiment [4] were > 128 µg/mL, 16 to 32 µg/mL (≈ 27.1 to 54.1 µM) and 1 to 2 µg/mL (≈ 1.69 to 3.38 µM), respectively.

Consider `O=C(N[C@H](C(=O)N[C@H]1Cc2cccc(C(=O)O)c2OB1O)c1ccc(P(=O)(O)O)cc1)c1ccc(C(F)(F)F)cn1` (single isomer, unassigned) [Example 192], for which, in experiment [1], the 50% effective concentration (EC50) fell in the range of 10 to 50 µM. The MIC is > 128 µg/mL in experiment [2], 16 to 32 µg/mL (≈ 27 to 53.9 µM) in experiment [3] and 1 to 2 µg/mL (≈ 1.69 to 3.37 µM) in experiment [4].

Take `O=C(N[C@@H](C(=O)N[C@H]1Cc2cccc(C(=O)O)c2OB1O)c1ccc(P(=O)(O)O)cc1)c1ccc(C(F)(F)F)cn1` (single isomer, unassigned) [Example 193]: the EC50 in experiment [1] is < 10 µM. Also, the MIC in experiment [2] was 32 to 64 µg/mL (≈ 53.9 to 108 µM); in experiment [3], 4 to 8 µg/mL (≈ 6.74 to 13.5 µM); in experiment [4] it was < 1 µg/mL.

As for `O=C(O)c1cccc2c1OB(O)[C@@H](NC(=O)[C@@H](NC(=O)c1cnc3sccn3c1=O)c1ccc(P(=O)(O)O)cc1)C2` (single isomer, unassigned) [Example 194], in experiment [1], the EC50 lay in the range of 10 to 50 µM. The MIC in experiment [2] is > 128 µg/mL; in experiment [3] it was 16 to 32 µg/mL (≈ 26.7 to 53.5 µM); in experiment [4] it was 16 to 32 µg/mL (≈ 26.7 to 53.5 µM).

With `O=C(O)c1cccc2c1OB(O)[C@@H](NC(=O)[C@H](NC(=O)c1cnc3sccn3c1=O)c1ccc(P(=O)(O)O)cc1)C2` (single isomer, unassigned) [Example 195], in experiment [1], the concentration for a half-maximal effect (EC50) is < 10 µM. For the same compound, the MIC in experiment [2] is > 128 µg/mL; in experiment [3], 16 to 32 µg/mL (≈ 26.7 to 53.5 µM); in experiment [4], 4 to 8 µg/mL (≈ 6.69 to 13.4 µM).

As for `CS(=O)(=O)N1CCN(C(=O)NC(C(=O)N[C@H]2Cc3cccc(C(=O)O)c3OB2O)c2ccc(P(=O)(O)O)c(Cl)c2)C1=O` (stereo partly drawn) [Example 11, (3R)-3-(2-(3-chloro-4-phosphonophenyl)-2-(3-(methylsulfonyl)-2-oxoimidazolidine-1-carboxamido)acetamido)-2-hydroxy-3,4-dihydro-2H-benzo[e][1,2]oxaborinine-8-carboxylic acid], in experiment [1], the EC50 was < 10 µM. In addition, the MIC was 32 to 64 µg/mL (≈ 49.6 to 99.3 µM) in experiment [2], 1 to 2 µg/mL (≈ 1.55 to 3.1 µM) in experiment [3] and < 1 µg/mL in experiment [4].

Consider `CS(=O)(=O)N1CCN(C(=O)NC(C(=O)N[C@H]2Cc3cccc(C(=O)O)c3OB2O)c2ccc(P(=O)(O)O)c(F)c2)C1=O` (stereo partly drawn) [Example 12, (3R)-3-(2-(3-fluoro-4-phosphonophenyl)-2-(3-(methylsulfonyl)-2-oxoimidazolidine-1-carboxamido)acetamido)-2-hydroxy-3,4-dihydro-2H-benzo[e][1,2]oxaborinine-8-carboxylic acid], for which the concentration for a half-maximal effect (EC50) in experiment [1] was < 10 µM. The results for the MIC in experiment [2], in experiment [3] and in experiment [4] were 8 to 16 µg/mL (≈ 12.7 to 25.5 µM), < 1 µg/mL and < 1 µg/mL, respectively.

As for `NC(C(=O)N[C@H]1Cc2ccc(F)c(C(=O)O)c2OB1O)c1ccc(P(=O)(O)O)cc1` (stereo partly drawn) [Example 14, (3R)-3-(2-amino-2-(4-phosphonophenyl)acetamido)-7-fluoro-2-hydroxy-3,4-dihydro-2H-benzo[e][1,2]oxaborinine-8-carboxylic acid], the EC50 in experiment [1] is > 250 µM. Also, the MIC in experiment [2] was > 128 µg/mL; in experiment [3] it was > 64 µg/mL; in experiment [4], > 64 µg/mL.

For `CS(=O)(=O)N1CCN(C(=O)N[C@@H](C(=O)N[C@H]2Cc3ccc(F)c(C(=O)O)c3OB2O)c2ccc(P(=O)(O)O)c(F)c2F)C1=O` [Example 16, (R)-3-((R)-2-(2,3-difluoro-4-phosphonophenyl)-2-(3-(methylsulfonyl)-2-oxoimidazolidine-1-carboxamido)acetamido)-7-fluoro-2-hydroxy-3,4-dihydro-2H-benzo[e][1,2]oxaborinine-8-carboxylic acid], in experiment [1], the EC50 was < 10 µM. Further, the MIC in experiment [2] is > 128 µg/mL; in experiment [3], < 1 µg/mL; in experiment [4] it was < 1 µg/mL.

In general, EC50 refers to the concentration at which the effect is half-maximal.
